From US20120122727A1, “IN VITRO METHOD FOR PREDICTING WHETHER A COMPOUND IS GENOTOXIC IN VIVO” (priority 2009, published 2012)

Columns and labels:
[1] = in vivo; cited from earlier work
[2] = tested on: primary mouse hepatocytes; experiment: Gene expression (Affymetrix Mouse Genome 430 2.0) in primary mouse hepatocytes, true vs false GTX, 24 h and 48 h

Cl.ClCc1ccccn1 [2-CP, 2-(Chloromethyl)pyridine.HCl]
GTX in vivo [1]: − | Gene expression AA561726 average [2]: −0.4297 | Gene expression AF000969 average [2]: 0.2944 | Gene expression AF022072 average [2]: 0.04067 | Gene expression AF033112 average [2]: −0.6651 | Gene expression AF055573 average [2]: 0.3686 | Gene expression AF069954 average [2]: 0.199 | Gene expression AF297615 average [2]: −0.5906 | Gene expression AF335325 average [2]: −0.05667 | Gene expression AI594683 average [2]: −0.2197 | Gene expression AI747296 average [2]: −0.2637 | Gene expression AK005731 average [2]: −0.6019 | Gene expression AK007854 average [2]: 0.5513 | Gene expression AK010447 average [2]: −0.05023 | Gene expression AK010738 average [2]: 0.0059 | Gene expression AK014608 average [2]: −0.01263 | Gene expression AK017734 average [2]: 0.1489 | Gene expression AK018383 average [2]: −0.2158 | Gene expression AK019979 average [2]: −0.4249 | Gene expression AV095209 average [2]: −0.03467 | Gene expression AV141095 average [2]: −0.4102 | Gene expression AV173869 average [2]: 0.3109 | Gene expression AV216768 average [2]: −0.4179 | Gene expression AV219418 average [2]: 0.8281 | Gene expression AV221299 average [2]: 0.4545 | Gene expression AV246296 average [2]: −0.3558 | Gene expression AV251625 average [2]: 0.06723 | Gene expression AV254764 average [2]: 0.396 | Gene expression AV327248 average [2]: −0.2215 | Gene expression BB009155 average [2]: −0.348 | Gene expression BB027848 average [2]: 0.2054 | Gene expression BB043558 average [2]: −0.2293 | Gene expression BB046347 average [2]: 0.187 | Gene expression BB140436 average [2]: 0.2823 | Gene expression BB204486 average [2]: −0.3875 | Gene expression BB223872 average [2]: 0.1743 | Gene expression BB246912 average [2]: 0.5739 | Gene expression BB275142 average [2]: 0.091 | Gene expression BB458460 average [2]: −0.1792 | Gene expression BB463610 average [2]: 0.0113 | Gene expression BB730977 average [2]: −0.7313 | Gene expression BB743970 average [2]: −0.1686 | Gene expression BB770528 average [2]: −0.4836 | Gene expression BB781615 average [2]: 0.007033 | Gene expression BC003284 average [2]: −0.2395 | Gene expression BC004827 average [2]: −0.2477 | Gene expression BC005552 average [2]: 0.1255 | Gene expression BC006713 average [2]: 0.2405 | Gene expression BC010318 average [2]: 0.1986 | Gene expression BC012247 average [2]: 0.5221 | Gene expression BC012955 average [2]: 0.2863 | Gene expression BC013893 average [2]: 0.4871 | Gene expression BC017615 average [2]: −0.3193 | Gene expression BC019379 average [2]: −0.1926 | Gene expression BC019882 average [2]: 0.8148 | Gene expression BC021352 average [2]: −0.7192 | Gene expression BC022148 average [2]: 0.1919 | Gene expression BC025169 average [2]: 0.9283 | Gene expression BC026131 average [2]: 0.4079 | Gene expression BC027026 average [2]: −0.2177 | Gene expression BC027121 average [2]: −0.6553 | Gene expression BC027185 average [2]: 0.06273 | Gene expression BE956581 average [2]: 0.0444 | Gene expression BF719766 average [2]: −0.1259 | Gene expression BG065754 average [2]: −0.2817 | Gene expression BG066491 average [2]: −0.3489 | Gene expression BG076151 average [2]: −0.0769 | Gene expression BG076333 average [2]: 0.4759 | Gene expression BG797099 average [2]: 0.004233 | Gene expression BG967046 average [2]: −0.1557 | Gene expression BI651416 average [2]: −0.08753 | Gene expression BI966443 average [2]: −0.01713 | Gene expression BM198879 average [2]: −0.1026 | Gene expression BM200015 average [2]: −0.3607 | Gene expression BM230508 average [2]: −0.2554 | Gene expression BM936480 average [2]: −0.07417 | Gene expression BQ174991 average [2]: 0.1864 | Gene expression L21027 average [2]: −0.5404 | Gene expression NM_007556 average [2]: 0.1685 | Gene expression NM_007980 average [2]: −0.2848 | Gene expression NM_007987 average [2]: −0.3447 | Gene expression NM_008522 average [2]: 0.0213 | Gene expression NM_008935 average [2]: −0.2124 | Gene expression NM_009897 average [2]: −0.06103 | Gene expression NM_011075 average [2]: −0.5782 | Gene expression NM_011176 average [2]: −0.0046 | Gene expression NM_011316 average [2]: 0.5829
